Assay results from PubChem BioAssay AID1259407 (Chemical Carcinogenesis Research Information System (CCRIS), 2018).
The source made the active and inactive calls. How the calls were made is not given here.

Tested on: CCRIS mutagenicity, Ames/micronucleus/aberration tests
Experiment: CCRIS mutagenicity studies

**Q.** Which mutagenic call (Test System: AMES SALMONELLA TYPHIMURIUM, Strain/Indicator: TA98, Metabolic Activation: NONE, Method: DESICCATOR) does the source give for FC(F)(Cl)Br here?
**A.** inactive; negative

**Q.** And the mutagenic call (Test System: AMES SALMONELLA TYPHIMURIUM, Strain/Indicator: TA100, Metabolic Activation: NONE, Method: DESICCATOR)?
**A.** inactive; negative

**Q.** What about the mutagenic call (Test System: AMES SALMONELLA TYPHIMURIUM, Strain/Indicator: TA100, Metabolic Activation: RAT, LIVER, S-9, AROCLOR 1254, Method: DESICCATOR) of the same molecule?
**A.** inactive; negative

**Q.** What about the mutagenic call (Test System: AMES SALMONELLA TYPHIMURIUM, Strain/Indicator: TA1535, Metabolic Activation: NONE, Method: DESICCATOR) of the same molecule?
**A.** active; positive

**Q.** What about the mutagenic call (Test System: AMES SALMONELLA TYPHIMURIUM, Strain/Indicator: TA1535, Metabolic Activation: RAT, LIVER, S-9, AROCLOR 1254, Method: DESICCATOR) of the same molecule?
**A.** active; positive

**Q.** What about the mutagenic call (Test System: AMES SALMONELLA TYPHIMURIUM, Strain/Indicator: TA1538, Metabolic Activation: RAT, LIVER, S-9, AROCLOR 1254, Method: DESICCATOR) of the same molecule?
**A.** inactive; negative

**Q.** And the mutagenic call (Test System: MOUSE LYMPHOMA, Strain/Indicator: L5178Y (TK+/TK-), Metabolic Activation: NONE, Method: DESICCATOR)?
**A.** inactive; negative

**Q.** And the mutagenic call (Test System: MOUSE LYMPHOMA, Strain/Indicator: L5178Y (TK+/TK-), Metabolic Activation: S-9, Method: DESICCATOR)?
**A.** inactive; negative

**Q.** CN=NNc1ccc(C(=O)O)cc1 was tested. Which mutagenic call (Test System: AMES SALMONELLA TYPHIMURIUM, Strain/Indicator: TA92, Metabolic Activation: NONE, Method: STANDARD PLATE) did it give?
**A.** active; positive

**Q.** And the mutagenic call (Test System: E. COLI B, Strain/Indicator: TM9, Metabolic Activation: NONE, Method: STANDARD PLATE)?
**A.** active; positive

**Q.** Which mutagenic call (Test System: CHINESE HAMSTER V-79, Strain/Indicator: V-79 (HGPRT)/8-AZAGUANINE, Metabolic Activation: NONE) does the source give for O=C(O)/C=C/C=C/CO here?
**A.** inactive; negative

**Q.** With CCOC(=O)Nc1cccc(OC(=O)Nc2ccccc2)c1 as the molecule, how does the mutagenic call (Test System: Ames Salmonella typhimurium, Strain/Indicator: TA98, Metabolic Activation: None) read?
**A.** inactive; negative

**Q.** And the mutagenic call (Test System: Ames Salmonella typhimurium, Strain/Indicator: TA98, Metabolic Activation: Rat, Liver, S-9)?
**A.** inactive; negative

**Q.** And the mutagenic call (Test System: Ames Salmonella typhimurium, Strain/Indicator: TA100, Metabolic Activation: None)?
**A.** inactive; negative

**Q.** And the mutagenic call (Test System: Ames Salmonella typhimurium, Strain/Indicator: TA100, Metabolic Activation: Rat, Liver, S-9)?
**A.** inactive; negative

**Q.** And the mutagenic call (Test System: Ames Salmonella typhimurium, Strain/Indicator: TA1535, Metabolic Activation: None)?
**A.** inactive; negative

**Q.** And the mutagenic call (Test System: Ames Salmonella typhimurium, Strain/Indicator: TA1535, Metabolic Activation: Rat, Liver, S-9)?
**A.** inactive; negative

**Q.** What about the mutagenic call (Test System: Ames Salmonella typhimurium, Strain/Indicator: TA1537, Metabolic Activation: None) of the same molecule?
**A.** inactive; negative

**Q.** What about the mutagenic call (Test System: Ames Salmonella typhimurium, Strain/Indicator: TA1537, Metabolic Activation: Rat, Liver, S-9) of the same molecule?
**A.** inactive; negative

**Q.** And the mutagenic call (Test System: E. coli, Strain/Indicator: WP2, Metabolic Activation: None, Method: Not reported by DPR)?
**A.** inactive; negative

**Q.** What about the mutagenic call (Test System: E. coli, Strain/Indicator: WP2, Metabolic Activation: Rat, Liver, S-9, Method: Not reported by DPR) of the same molecule?
**A.** inactive; negative
